Reference: ChEMBL document CHEMBL1201862, “PubChem BioAssay data set” (2004)
“And” between values parts separate entries of the source, which are not always exact repeats. Identical values can stand only once.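 1) Cells in 96-well plates. 2) Compound, 48 h, 5 concentrations. 3) Linear interpolation between surrounding doses. 4) Unreached endpoint = highest concentration. GI50 marks 50% less growth.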 The source made the active and inactive calls. No stated cut-off is given here; in the data, active = GI50 up to about 1.1 µM and inactive = higher.

Key:
Experiment in all cases: inhibition of tumour cell growth, NCI panel, 48 h
EKVX = system: EKVX
SNB-75 = system: SNB-75
TK-10 = system: TK-10
HT-29 = system: HT-29
DMS-273 = system: DMS-273
SW-620 = system: SW-620
NCI-H226 = system: NCI-H226
DLD-1 = system: DLD-1
RPMI-8226 = system: RPMI-8226
LXFL 529 = system: LXFL 529
IGROV-1 = system: IGROV-1
SR = system: SR
CCRF-CEM = system: CCRF-CEM
KM12 = system: KM12
LOX IMVI = system: LOX IMVI
UACC-257 = system: UACC-257
HCT-116 = system: HCT-116
NCI-H460 = system: NCI-H460
HCC 2998 = system: HCC 2998
DMS-114 = system: DMS-114
SK-MEL-28 = system: SK-MEL-28
HOP-92 = system: HOP-92
KM-20L2 = system: KM-20L2
M19-MEL = system: M19-MEL
SF-295 = system: SF-295
SK-MEL-2 = system: SK-MEL-2
SN12C = system: SN12C
HL-60 = system: HL-60
SK-OV-3 = system: SK-OV-3
HCT-15 = system: HCT-15
OVCAR-4 = system: OVCAR-4
SK-MEL-5 = system: SK-MEL-5
OVCAR-5 = system: OVCAR-5
UACC-62 = system: UACC-62
NCI-H23 = system: NCI-H23
Malme-3M = system: Malme-3M
RXF 393 = system: RXF 393
U-251 = system: U-251
M14 = system: M14
SF-268 = system: SF-268
K562 = system: K562
ACHN = system: ACHN
UO-31 = system: UO-31
OVCAR-8 = system: OVCAR-8
NCI-H522 = system: NCI-H522
MOLT-4 = system: MOLT-4
OVCAR-3 = system: OVCAR-3
COLO 205 = system: COLO 205
HOP-62 = system: HOP-62
CAKI-1 = system: CAKI-1
MDA-MB-231 = system: MDA-MB-231
PC-3 = system: PC-3
MCF7 = system: MCF7
SNB-19 = system: SNB-19
MDA-MB-435 = system: MDA-MB-435
SF-539 = system: SF-539
NCI/ADR-RES = system: NCI/ADR-RES
Hs-578T = system: Hs-578T
BT-549 = system: BT-549
MDA-N = system: MDA-N
DU-145 = system: DU-145
T47D = system: T47D
A498 = system: A498
A549 = system: A549
786-0 = system: 786-0

With C[C@H](O)C(=O)SC[C@H](NC(=O)CC[C@@H](N)C(=O)O)C(=O)NCC(=O)O the GI50 (EKVX) was > 100 µM (inactive), the GI50 (SNB-75) was 14.5 µM (inactive) and the GI50 (TK-10) was > 100 µM (inactive). The GI50 (HT-29) was > 100 µM (inactive), the GI50 (DMS-273) was > 100 µM (inactive) and the GI50 (SW-620) was > 100 µM (inactive). The GI50 (NCI-H226) was > 100 µM (inactive), the GI50 (DLD-1) was > 100 µM (inactive) and the GI50 (RPMI-8226) was > 100 µM (inactive). The GI50 (LXFL 529) was > 100 µM (inactive), the GI50 (IGROV-1) was > 100 µM (inactive) and the GI50 (SR) was > 100 µM (inactive). The GI50 (CCRF-CEM) was > 100 µM (inactive), the GI50 (KM12) was > 100 µM (inactive) and the GI50 (LOX IMVI) was > 100 µM (inactive). For the same molecule, the GI50 (UACC-257) was > 100 µM (inactive), the GI50 (HCT-116) was > 100 µM (inactive) and the GI50 (NCI-H460) was > 100 µM (inactive). For the same molecule, the GI50 (HCC 2998) was > 100 µM (inactive), the GI50 (DMS-114) was > 100 µM (inactive) and the GI50 (SK-MEL-28) was > 100 µM (inactive). The GI50 (HOP-92) was > 100 µM (inactive), the GI50 (KM-20L2) was > 100 µM (inactive) and the GI50 (M19-MEL) was > 100 µM (inactive). The GI50 (SF-295) was > 100 µM (inactive), the GI50 (SK-MEL-2) was > 100 µM (inactive) and the GI50 (SN12C) was > 100 µM (inactive). For the same molecule, the GI50 (HL-60) was > 10 µM (inactive), the GI50 (SK-OV-3) was > 100 µM (inactive) and the GI50 (HCT-15) was over 100 µM. For the same molecule, the GI50 (OVCAR-4) was > 100 µM (inactive), the GI50 (SK-MEL-5) was > 100 µM (inactive) and the GI50 (OVCAR-5) was > 100 µM (inactive). For the same molecule, the GI50 (UACC-62) was > 100 µM (inactive), the GI50 (NCI-H23) was > 100 µM (inactive) and the GI50 (Malme-3M) was > 100 µM (inactive). The GI50 (RXF 393) was > 100 µM (inactive), the GI50 (U-251) was > 100 µM (inactive) and the GI50 (M14) was > 100 µM (inactive). The GI50 (SF-268) was > 100 µM (inactive), the GI50 (K562) was > 100 µM (inactive) and the GI50 (ACHN) was > 100 µM (inactive). For the same molecule, the GI50 (UO-31) was > 100 µM (inactive), the GI50 (OVCAR-8) was > 100 µM (inactive) and the GI50 (NCI-H522) was > 100 µM (inactive). The GI50 (MOLT-4) was > 100 µM (inactive), the GI50 (OVCAR-3) was > 100 µM (inactive) and the GI50 (COLO 205) was > 100 µM (inactive). The GI50 (HOP-62) was > 100 µM (inactive) and the GI50 (CAKI-1) was > 100 µM (inactive).

N#Cc1c(-c2ccccc2)cc(-c2ccccc2)n(C2OC(CO)C(O)C(O)C2O)c1=O (stereo not drawn) was tested, and the GI50 (RPMI-8226) was 69.7 µM (inactive) and 84.3 µM (inactive), the GI50 (LXFL 529) was 68.4 µM (inactive) and 97.5 µM (inactive) and the GI50 (SR) was 47.3 µM (inactive). For the same molecule, the GI50 (CCRF-CEM) was 59.8 µM (inactive) and 47.1 µM (inactive), the GI50 (LOX IMVI) was 61.9 µM (inactive) and 63.1 µM (inactive) and the GI50 (HL-60) was 43.9 µM (inactive) and 44.2 µM (inactive). The GI50 (UACC-62) was 86.5 µM (inactive) and 84.3 µM (inactive), the GI50 (K562) was 44.2 µM (inactive) and 49.7 µM (inactive) and the GI50 (MOLT-4) was 41 µM (inactive) and 38.2 µM (inactive).

For O=C1C[C@H](Sc2ccccc2)C2(OCCO2)[C@@H](Sc2ccccc2)C1, the GI50 (EKVX) was 4.52 µM (inactive), the GI50 (SNB-75) was 11.9 µM (inactive) and the GI50 (TK-10) was 1.95 µM (inactive). The GI50 (HT-29) was 1.64 µM (inactive), the GI50 (MDA-MB-231) was 1.64 µM (inactive) and the GI50 (PC-3) was 1.93 µM (inactive). The GI50 (SW-620) was 1.24 µM (inactive), the GI50 (NCI-H226) was 2.31 µM (inactive) and the GI50 (RPMI-8226) was 0.743 µM (active). For the same molecule, the GI50 (MCF7) was 1.17 µM (inactive), the GI50 (IGROV-1) was 1.5 µM (inactive) and the GI50 (SR) was 0.322 µM (active). The GI50 (CCRF-CEM) was 0.282 µM (active), the GI50 (KM12) was 1.79 µM (inactive) and the GI50 (LOX IMVI) was 0.7 µM (active). For the same molecule, the GI50 (UACC-257) was 1.8 µM (inactive), the GI50 (HCT-116) was 1.6 µM (inactive) and the GI50 (NCI-H460) was 5.19 µM (inactive). The GI50 (HCC 2998) was 2.58 µM (inactive), the GI50 (SNB-19) was 11 µM (inactive) and the GI50 (MDA-MB-435) was 2.25 µM (inactive). The GI50 (SK-MEL-28) was 2.38 µM (inactive), the GI50 (HOP-92) was 1.9 µM (inactive) and the GI50 (SF-539) was 0.998 µM (active). The GI50 (NCI/ADR-RES) was 1.88 µM (inactive), the GI50 (SF-295) was 4.33 µM (inactive) and the GI50 (Hs-578T) was 1.77 µM (inactive). The GI50 (SK-MEL-2) was 10.2 µM (inactive), the GI50 (SN12C) was 2.7 µM (inactive) and the GI50 (HL-60) was 0.272 µM (active). The GI50 (SK-OV-3) was 11.5 µM (inactive), the GI50 (HCT-15) was 1.68 µM and the GI50 (OVCAR-4) was 5.07 µM (inactive). For the same molecule, the GI50 (BT-549) was 1.97 µM (inactive), the GI50 (SK-MEL-5) was 1.64 µM (inactive) and the GI50 (OVCAR-5) was 3.35 µM (inactive). For the same molecule, the GI50 (MDA-N) was 2.2 µM (inactive), the GI50 (UACC-62) was 2.01 µM (inactive) and the GI50 (NCI-H23) was 2.09 µM (inactive). The GI50 (Malme-3M) was 1.81 µM (inactive), the GI50 (RXF 393) was 1 µM (active) and the GI50 (U-251) was 1.78 µM (inactive). For the same molecule, the GI50 (DU-145) was 3.19 µM (inactive), the GI50 (M14) was 1.78 µM (inactive) and the GI50 (SF-268) was 1.87 µM (inactive). For the same molecule, the GI50 (K562) was 0.351 µM (active), the GI50 (T47D) was 5.13 µM (inactive) and the GI50 (ACHN) was 1.77 µM (inactive). For the same molecule, the GI50 (UO-31) was 1.23 µM (inactive), the GI50 (OVCAR-8) was 1.73 µM (inactive) and the GI50 (NCI-H522) was 0.316 µM (active). For the same molecule, the GI50 (MOLT-4) was 0.26 µM (active), the GI50 (A498) was 15.1 µM (inactive) and the GI50 (A549) was 1.87 µM (inactive). The GI50 (OVCAR-3) was 2.16 µM (inactive), the GI50 (COLO 205) was 4.28 µM (inactive) and the GI50 (HOP-62) was 3.27 µM (inactive). The GI50 (786-0) was 2.82 µM (inactive) and the GI50 (CAKI-1) was 3.1 µM (inactive).
